The results in this text go back to PMC2788670 (Journal of medicinal chemistry, 2009).

“Also recorded” adds a separate entry of the source.

Assay type in all cases: cell-based
In one test the test system is HIV-1 NL4-3. The test can be described thus: HIV-1 NL4-3 single-round infection assay in TZM-bl cells. The settings on record: 200 TCID50, 2 days, luciferase, average of 3 independent experiments, Inactive = TC50/IC50 < 2.
The subject of the next test is HIV-2 KR.X3. Nature of the test: HIV-2 KR.X3 single-round infection assay in TZM-bl cells. The note with it: for IC50 (µM) HIV-2 KR.X3: TZM-bl cells, 200 TCID50, 2 days, luciferase, average of 3 independent experiments, Inactive = TC50/IC50 < 2; for reduction of anti-HIV-2 activity after glycine addition compared to precursor: 13 versus 8, 14 versus 9.
In the next test the test system is HIV-2 KR.X3-YU-2/V3. Nature of the test: HIV-2 KR.X3-YU-2/V3 chimeric virus infection assay in TZM-bl cells. The note with it: chimeric virus with V3 loop of HIV-1 YU-2; Figure 1, 4 independent experiments.

`C=C(C)[C@@H]1CC[C@]2(C(=O)NCCCCCC(=O)N[C@@H](Cc3ccc(O)cc3)C(=O)O)CC[C@]3(C)[C@H](CC[C@@H]4[C@@]5(C)CC[C@H](O)C(C)(C)[C@@H]5CC[C@]43C)[C@@H]12` [Compound 19]: the “IC50 (µM) HIV-1 NL4-3” value with HIV-1 NL4-3 is listed as “Inactive”. For `C=C(C)[C@@H]1CC[C@]2(C(=O)NCCCCCCCNC(C)=O)CC[C@]3(C)[C@H](CC[C@@H]4[C@@]5(C)CC[C@H](O)C(C)(C)[C@@H]5CC[C@]43C)[C@@H]12` [Compound 4, [[N-[3β-hydroxyl-lup-20(29)-en-28-oyl]-7-aminoheptyl]-carbamoyl]methane], the “IC50 (µM) HIV-2 KR.X3” value in the test with HIV-2 KR.X3 is reported as “Inactive”. For `C=C(C)[C@@H]1CC[C@]2(C(=O)NCCCCC(=O)NCC(=O)O)CC[C@]3(C)[C@H](CC[C@@H]4[C@@]5(C)CC[C@H](O)C(C)(C)[C@@H]5CC[C@]43C)[C@@H]12` [Compound 13], the “IC50 (µM) HIV-1 NL4-3” value with HIV-1 NL4-3 was “Inactive”. The “reduction of anti-HIV-2 activity after glycine addition compared to precursor” value in the test on HIV-2 KR.X3 was “approximately 15 fold”. Consider `C=C(C)[C@@H]1CC[C@]2(C(=O)O)CC[C@]3(C)[C@H](CC[C@@H]4[C@@]5(C)CC[C@H](O)C(C)(C)[C@@H]5CC[C@]43C)[C@@H]12` [Compound 1, Betulinic acid, reference compound], for which the “IC50 (µM) HIV-1 NL4-3” value in the test with HIV-1 NL4-3 is recorded as “did not exhibit anti-HIV-1 or anti-HIV-2 activity; also recorded: Inactive”. In the test on HIV-2 KR.X3, the “IC50 (µM) HIV-2 KR.X3” value is “did not exhibit anti-HIV-1 or anti-HIV-2 activity; also recorded: Inactive”. With `C=C(C)[C@@H]1CC[C@]2(C(=O)NCCCCCC(=O)NCC(=O)NCC(=O)O)CC[C@]3(C)[C@H](CC[C@@H]4[C@@]5(C)CC[C@H](O)C(C)(C)[C@@H]5CC[C@]43C)[C@@H]12` [Compound 21], in the test on HIV-2 KR.X3, the “less potent against HIV-2 than 9” value was “approximately 10 fold”.

As for `C=C(C)[C@@H]1CC[C@]2(C(=O)NCCCCCNC(C)=O)CC[C@]3(C)[C@H](CC[C@@H]4[C@@]5(C)CC[C@H](O)C(C)(C)[C@@H]5CC[C@]43C)[C@@H]12` [Compound 2], the “IC50 (µM) HIV-1 NL4-3” value in the test with HIV-1 NL4-3 was “Inactive”. In the test with HIV-2 KR.X3, the “IC50 (µM) HIV-2 KR.X3” value is “Inactive”. In the case of `C=C(C)[C@@H]1CC[C@]2(C(=O)NCCCCCCCCNC(C)=O)CC[C@]3(C)[C@H](CC[C@@H]4[C@@]5(C)CC[C@H](O)C(C)(C)[C@@H]5CC[C@]43C)[C@@H]12` [Compound 5], in the test with HIV-2 KR.X3, the “IC50 (µM) HIV-2 KR.X3” value is “Inactive”.

With `C=C(C)[C@@H]1CC[C@]2(C(=O)NCCCCCCCC(=O)O)CC[C@]3(C)[C@H](CC[C@@H]4[C@@]5(C)CC[C@H](O)C(C)(C)[C@@H]5CC[C@]43C)[C@@H]12` [Compound 11], the “IC50 (µM) HIV-2 KR.X3” value with HIV-2 KR.X3 is “Inactive”. On the same count and under the same terms, then `C=C(C)[C@@H]1CC[C@]2(C(=O)NCCCCCCNC(=O)CC(=O)O)CC[C@]3(C)[C@H](CC[C@@H]4[C@@]5(C)CC[C@H](O)C(C)(C)[C@@H]5CC[C@]43C)[C@@H]12` [Compound 6], with “Inactive”. For the compound `C=C(C)[C@@H]1CC[C@]2(C(=O)NCCCCCCCC(=O)N[C@@H](CC(C)C)[C@H](O)CC(=O)O)CC[C@]3(C)[C@H](CC[C@@H]4[C@@]5(C)CC[C@H](O)C(C)(C)[C@@H]5CC[C@]43C)[C@@H]12` [Compound 17, reference compound], the “anti-HIV-2 activity less potent than its anti-HIV-1 activity” value in the test on HIV-2 KR.X3 (HIV-2 KR.X3 versus HIV-1 NL4-3) is listed as “about 70 times”. With `C=C(C)[C@@H]1CC[C@]2(C(=O)NCCCC(=O)NCC(=O)O)CC[C@]3(C)[C@H](CC[C@@H]4[C@@]5(C)CC[C@H](O)C(C)(C)[C@@H]5CC[C@]43C)[C@@H]12` [Compound 12], the “IC50 (µM) HIV-1 NL4-3” value in the test on HIV-1 NL4-3 is “Inactive”. In the case of `C=C(C)[C@@H]1CC[C@]2(C(=O)O)CC[C@]3(C)[C@H](CC[C@@H]4[C@@]5(C)CC[C@H](OC(=O)CC(C)(C)C(=O)O)C(C)(C)[C@@H]5CC[C@]43C)[C@@H]12` [Compound 22, 3-O-(3’,3’-dimethylsuccinyl)-betulinic acid, reference compound], the “IC50 (µM) HIV-2 KR.X3” value in the test on HIV-2 KR.X3 is given as “did not inhibit HIV-2 replication; also recorded: Inactive”.

As to `C=C(C)[C@@H]1CC[C@]2(C(=O)NCCCC(=O)O)CC[C@]3(C)[C@H](CC[C@@H]4[C@@]5(C)CC[C@H](O)C(C)(C)[C@@H]5CC[C@]43C)[C@@H]12` [Compound 7], the “IC50 (µM) HIV-1 NL4-3” value in the test with HIV-1 NL4-3 is recorded as “Inactive”. Consider `C=C(C)[C@@H]1CC[C@]2(C(=O)NCCCCCCNC(C)=O)CC[C@]3(C)[C@H](CC[C@@H]4[C@@]5(C)CC[C@H](O)C(C)(C)[C@@H]5CC[C@]43C)[C@@H]12` [Compound 3], for which the “IC50 (µM) HIV-2 KR.X3” value in the test on HIV-2 KR.X3 was “completely inactive”.

Consider `C=C(C)[C@@H]1CC[C@]2(C(=O)NCCCCCC(=O)NCC(=O)O)CC[C@]3(C)[C@H](CC[C@@H]4[C@@]5(C)CC[C@H](O)C(C)(C)[C@@H]5CC[C@]43C)[C@@H]12` [Compound 14], for which, in the test on HIV-2 KR.X3-YU-2/V3, the “HIV-2 KR.X3-YU-2/V3 less sensitive compared to HIV-2 KR.X3” value is listed as “approximately 5 fold”. In the test on HIV-2 KR.X3, the “reduction of anti-HIV-2 activity after glycine addition compared to precursor” value was “approximately 2 fold”.
